Consider two molecules from US20060057073A1, “Wet granulation process” (Pari GmbH, priority 2002, published 2006).

Data set [1] is described as follows: Particle size by laser diffraction (Malvern MasterSizer 2000, dry dispersing). The format is physicochemical. The conditions noted are these: mean diameter of the volume distribution; mean of three measurements.
A short description of data set [2]: Bulk density according to Ph. Eur. The format is physicochemical.
For data set [3] the following is noted: base; cited from earlier work.
For data set [4] the following is noted: drug substance as free acid; cited from earlier work.

Regarding `COc1ccc(Cc2nccc3cc(OC)c(OC)cc23)cc1OC` [papaverine], the “D50% (laser diffraction)” value in data set [1] turned out to be 28.5 μm. In data set [2], this molecule gave a Bulk density of 0.41 g/mL. For the same molecule, the pK in data set [3] is given as 8.07.
`C[C@H]1[C@H](NC(=O)/C(=N\OC(C)(C)C(=O)O)c2csc(N)n2)C(=O)N1S(=O)(=O)O` [Aztreonam] registered a Bulk density in data set [2] of 0.49 g/mL. Besides, the “intrinsic pH” value in data set [4] is given as “about 1”. In the data set “Aqueous solubility”, the Aqueous solubility is given as less than 0.1%. Besides, the “Aqueous solubility (in words)” value in “Aqueous solubility” (in water) is “nearly insoluble”.
